Experimental data taken from publication PMC9995618 (Journal of Genetic Engineering & Biotechnology, 2023).
pKi: −log10 of the molar value.

System: T1, tick larvae glutathione S transferase (TLGST)
T1 construct: native enzyme purified from larvae (42 kDa; 28 and 14 kDa subunits)
Assay: CDNB-GSH conjugation assay, Lineweaver-Burk and Ki plot
Format: biochemical, Hyalomma dromedarii

O=C(O)c1cc[c]([Hg][Cl])cc1 [p-chloromercuribenzoic acid]
pKi: 3.52
